PubChem BioAssay AID651885 (Broad Institute, 2012)

How the values were obtained:
[1] = system: BESM host cells (bovine embryo skeletal muscle), cytotoxicity; experiment: T. cruzi intracellular amastigote growth inhibition, dose response, imaging, CA-I/72 strain, bovine embryo skeletal muscle, dry powder (AID 651885); settings: T. cruzi CA-I/72 amastigotes in BESM cells, imaging, 72 h; measured here: host BESM cell toxicity
[2] = system: T. cruzi CA-I/72 amastigotes in BESM cells, imaging, 72 h; experiment: as above; settings: for IC90: measured here: parasite IC90, test 4; for IC99: measured here: parasite IC99, test 4

| SMILES | IC50 [1] | other results |
| --- | --- | --- |
| CC(C)N1C[C@H](C)[C@@H](CN(C)C(=O)OC(C)(C)C)Oc2c(C(=O)O)cccc2C1=O | > 20 µM | – |
| CC(C)N1C[C@H](C)[C@@H](CN(C)Cc2ccc(Oc3ccccc3)cc2)Oc2c(NC(=O)c3ccccc3)cccc2C1=O | 16.1 µM | – |
| CNC[C@H]1Oc2c(NC(=O)c3ccccc3)cccc2C(=O)N(C(C)C)C[C@@H]1C | > 20 µM | – |
| C[C@@H]1CN([C@@H](C)CO)C(=O)c2cc(-c3cccnc3)cnc2O[C@H]1CN(C)Cc1ccc(Oc2ccccc2)cc1 | > 20 µM | – |
| C[C@@H]1CN([C@H](C)CO)C(=O)c2cccc(NC(=O)c3ccncc3)c2O[C@H]1CN(C)Cc1ccc(C(F)(F)F)cc1 | > 20 µM | IC90 [2]: 0.472 µM; IC99 [2]: 4.75 µM |
| CC(C)N1C[C@H](C)[C@@H](CN(C)Cc2ccccc2Cl)Oc2c(NC(=O)c3ccncc3)cccc2C1=O | > 20 µM | – |
| C[C@@H]1CN([C@H](C)CO)C(=O)c2cccc(NC(=O)c3ccncc3)c2O[C@H]1CN(C)CC1CCCCC1 | > 20 µM | IC90 [2]: 28.5 µM; IC99 [2]: 158 µM |
| C[C@@H]1CN([C@@H](C)CO)C(=O)c2cc(Br)cnc2O[C@H]1CN(C)Cc1ccc2c(c1)OCO2 | > 20 µM | – |
| C[C@H]1CN([C@@H](C)CO)C(=O)c2cccc(NC(=O)c3ccncc3)c2O[C@@H]1CN(C)Cc1ccccc1 | > 20 µM | – |
| CC(C)N1C[C@H](C)[C@@H](CN(C)C(=O)OC(C)(C)C)Oc2c(NC(=O)c3cccnc3)cccc2C1=O | > 20 µM | – |
| C[C@H]1CN([C@@H](C)CO)C(=O)c2cccc(NC(=O)c3ccncc3)c2O[C@@H]1CN(C)Cc1ccc(C(=O)Nc2ccccc2N)cc1 | > 20 µM | – |
| C[C@@H]1CN([C@H](C)CO)C(=O)c2cccc(NC(=O)c3ccncc3)c2O[C@@H]1CN(C)Cc1ccc(Oc2ccccc2)cc1 | > 20 µM | IC90 [2]: 30.7 µM; IC99 [2]: 238 µM |
| C[C@H]1CN([C@@H](C)CO)C(=O)c2cccc(NC(=O)c3ccncc3)c2O[C@@H]1CN(C)Cc1ccc(Oc2ccccc2)cc1 | > 20 µM | – |
| C[C@@H]1CN([C@@H](C)CO)C(=O)c2cccc(NC(=O)c3ccncc3)c2O[C@H]1CN(C)C | > 20 µM | – |
| C[C@H](CO)N1C[C@H](C)[C@H](CN(C)Cc2ccc(Oc3ccccc3)cc2)Oc2c(NC(=O)c3ccncc3)cccc2C1=O | > 20 µM | – |
| C[C@H](CO)N1C[C@H](C)[C@@H](CN(C)Cc2ccc(Oc3ccccc3)cc2)Oc2c(NC(=O)c3ccncc3)cccc2C1=O | > 20 µM | – |
| C[C@@H]1CN([C@@H](C)CO)C(=O)c2cccc(NC(=O)c3ccncc3)c2O[C@H]1CN(C)Cc1ccc(Cl)cc1 | > 20 µM | – |
| CC(C)N(C)C(=O)c1cccc(NC(=O)c2ccncc2)c1OCCCN(C)Cc1ccc(Cl)cc1 | > 20 µM | – |
| C[C@@H]1CN([C@H](C)CO)C(=O)c2cccc(NC(=O)c3ccncc3)c2O[C@H]1CN(C)Cc1ccccc1 | > 20 µM | – |
| C[C@@H]1CN([C@@H](C)CO)C(=O)c2cccc(NC(=O)c3ccncc3)c2O[C@H]1CN(C)Cc1ccccc1Cl | > 20 µM | – |
| CC(C)N1C[C@H](C)[C@@H](CN(C)Cc2ccc(Oc3ccccc3)cc2)Oc2c(NC(=O)c3ccncc3)cccc2C1=O | > 20 µM | – |
| CC(C)N1C[C@H](C)[C@@H](CN(C)Cc2ccc(Cl)cc2)Oc2c(NC(=O)c3ccncc3)cccc2C1=O | > 20 µM | – |
| C[C@H]1CN([C@@H](C)CO)C(=O)c2cccc(NC(=O)c3ccncc3)c2O[C@@H]1CN(C)Cc1ccc(Cl)c(Cl)c1 | > 20 µM | – |
| C[C@H]1CN([C@@H](C)CO)C(=O)c2cccc(NC(=O)c3ccncc3)c2O[C@H]1CN(C)Cc1ccc(Oc2ccccc2)cc1 | > 20 µM | – |
| CC(C)N1C[C@H](C)[C@@H](CN(C)C(=O)OC(C)(C)C)Oc2c(NC(=O)c3ccncc3)cccc2C1=O | > 20 µM | – |
| C[C@H]1CN([C@@H](C)CO)C(=O)c2cccc(NC(=O)c3ccncc3)c2O[C@@H]1CN(C)Cc1ccc(C(F)(F)F)cc1 | > 20 µM | – |

| SMILES | IC50 [1] | other results |
| --- | --- | --- |
| C[C@H]1CN([C@@H](C)CO)C(=O)c2cccc(NC(=O)c3ccncc3)c2O[C@@H]1CN(C)Cc1ccncc1 | > 20 µM | – |
| C[C@@H]1CN([C@@H](C)CO)C(=O)c2cccc(NC(=O)c3ccncc3)c2O[C@@H]1CN(C)Cc1ccc(Oc2ccccc2)cc1 | > 20 µM | – |
| C[C@@H]1CN([C@@H](C)CO)C(=O)c2cc(-c3cncnc3)cnc2O[C@H]1CN(C)Cc1ccc(Oc2ccccc2)cc1 | > 20 µM | – |
| C[C@@H]1CN([C@@H](C)CO)C(=O)c2cccc(NC(=O)c3ccncc3)c2O[C@H]1CN(C)Cc1ccc(C(=O)O)cc1 | > 20 µM | – |
| CNC[C@@H]1Oc2c(NC(=O)c3ccncc3)cccc2C(=O)N(C(C)C)C[C@H]1C | > 20 µM | – |
| CC(C)N1C[C@H](C)[C@@H](CN(C)C(=O)OC(C)(C)C)Oc2c(C(=O)Nc3ccncc3)cccc2C1=O | > 20 µM | – |
| CC(C)N1C[C@H](C)[C@@H](CN(C)C(=O)OC(C)(C)C)Oc2c(C#N)cccc2C1=O | > 20 µM | – |
| C[C@@H]1CN([C@@H](C)CO)C(=O)c2cccc(NC(=O)c3cnccn3)c2O[C@H]1CN(C)Cc1ccc(Oc2ccccc2)cc1 | > 20 µM | – |
| C[C@@H]1CN([C@@H](C)CO)C(=O)c2cccc(NC(=O)c3ccncc3)c2O[C@H]1CN(C)Cc1ccc(Oc2ccccc2)cc1 | > 20 µM | IC50 [2]: 0.011 µM; IC90 [2]: 0.108 µM; IC99 [2]: 1.19 µM |
| COc1ccc(CN(C)C[C@H]2Oc3c(NC(=O)c4ccncc4)cccc3C(=O)N([C@@H](C)CO)C[C@@H]2C)cc1 | 15.3 µM | – |
| C[C@@H]1CN([C@H](C)CO)C(=O)c2cccc(NC(=O)c3ccncc3)c2O[C@H]1CN(C)Cc1ccc(Oc2ccccc2)cc1 | > 20 µM | IC90 [2]: 0.45 µM; IC99 [2]: 4.95 µM |
| CC(C)N1C[C@H](C)[C@@H](CN(C)Cc2ccccc2)Oc2c(NC(=O)c3ccncc3)cccc2C1=O | > 20 µM | – |
| COc1ccc(CN(C)C[C@@H]2Oc3c(NC(=O)c4ccncc4)cccc3C(=O)N([C@@H](C)CO)C[C@H]2C)cc1 | > 20 µM | IC90 [2]: 1.58 µM; IC99 [2]: 15.9 µM |
| C[C@@H]1CN([C@@H](C)CO)C(=O)c2cc(-c3ccncc3)cnc2O[C@H]1CN(C)Cc1ccc(Oc2ccccc2)cc1 | 5 µM | – |
| C[C@@H]1CN([C@@H](C)CO)C(=O)c2cccc(NC(=O)c3ccncc3)c2O[C@H]1CN(C)Cc1ccc2c(c1)OCO2 | > 20 µM | IC90 [2]: 0.921 µM; IC99 [2]: 7.92 µM |
| CC(C)N1C[C@H](C)[C@@H](CN(C)Cc2cccc(Cl)c2)Oc2c(NC(=O)c3ccncc3)cccc2C1=O | 19.1 µM | – |
| COc1ccc(CCN(C)C(=O)C2CCCN(Cc3ccc(OC)c(OC)c3)C2)cc1OC (stereo not drawn) | > 20 µM | – |
| CCCn1ncc(CN2CCCC(C(=O)c3cccc(OC(C)C)c3)C2)c1C (stereo not drawn) | > 20 µM | – |
| CC(C)N1C[C@H](C)[C@@H](CN(C)C(=O)OC(C)(C)C)Oc2c(NC(=O)c3ccccc3)cccc2C1=O | > 20 µM | – |
| C[C@@H]1CN([C@H](C)CO)C(=O)c2cccc(NC(=O)c3ccncc3)c2O[C@H]1CN(C)Cc1ccc2c(c1)OCO2 | > 20 µM | – |
| C[C@H]1CN([C@@H](C)CO)C(=O)c2cccc(NC(=O)c3ccncc3)c2O[C@@H]1CN(C)Cc1ccc(C(=O)O)cc1 | > 20 µM | – |
| C[C@@H]1CN([C@@H](C)CO)C(=O)c2cccc(NC(=O)c3ccncc3)c2O[C@H]1CN(C)Cc1ccc(-c2ccccc2)cc1 | > 20 µM | – |
| C[C@@H]1CN([C@@H](C)CO)C(=O)c2cccc(NC(=O)c3ccncc3)c2O[C@H]1CN(C)CC1CCCCC1 | > 20 µM | IC90 [2]: 6.03 µM; IC99 [2]: 63.4 µM |
| Cc1cc(C(=O)Nc2cccc3c2O[C@@H](CN(C)Cc2ccc(Oc4ccccc4)cc2)[C@H](C)CN([C@@H](C)CO)C3=O)n(C)n1 | > 20 µM | – |
| C[C@@H]1CN([C@@H](C)CO)C(=O)c2cccc(NC(=O)c3ccncc3)c2O[C@H]1CN(C)Cc1cccc(Cl)c1 | > 20 µM | – |
